Measured values published in US20100273769A1, “COMPOSITION AND METHOD FOR THE TREATMENT OF PARKINSON'S DISEASE” (priority 2009, published 2010).

What was measured:
G2019S mutant LRRK2 = molecular target: T1, G2019S mutant LRRK2 (Homo sapiens, UniProt Q5S007, G2019S); experiment: Adapta assay, inhibition of G2019S mutant LRRK2 kinase fragment; type: biochemical; details: 100 μM ATP, FIG. 3B
T1 construct: of the mutant aa1326-2527 kinase fragment are used in the assays; GST; made in house
T1 sequence (Q5S007 1326-2527 G2019S): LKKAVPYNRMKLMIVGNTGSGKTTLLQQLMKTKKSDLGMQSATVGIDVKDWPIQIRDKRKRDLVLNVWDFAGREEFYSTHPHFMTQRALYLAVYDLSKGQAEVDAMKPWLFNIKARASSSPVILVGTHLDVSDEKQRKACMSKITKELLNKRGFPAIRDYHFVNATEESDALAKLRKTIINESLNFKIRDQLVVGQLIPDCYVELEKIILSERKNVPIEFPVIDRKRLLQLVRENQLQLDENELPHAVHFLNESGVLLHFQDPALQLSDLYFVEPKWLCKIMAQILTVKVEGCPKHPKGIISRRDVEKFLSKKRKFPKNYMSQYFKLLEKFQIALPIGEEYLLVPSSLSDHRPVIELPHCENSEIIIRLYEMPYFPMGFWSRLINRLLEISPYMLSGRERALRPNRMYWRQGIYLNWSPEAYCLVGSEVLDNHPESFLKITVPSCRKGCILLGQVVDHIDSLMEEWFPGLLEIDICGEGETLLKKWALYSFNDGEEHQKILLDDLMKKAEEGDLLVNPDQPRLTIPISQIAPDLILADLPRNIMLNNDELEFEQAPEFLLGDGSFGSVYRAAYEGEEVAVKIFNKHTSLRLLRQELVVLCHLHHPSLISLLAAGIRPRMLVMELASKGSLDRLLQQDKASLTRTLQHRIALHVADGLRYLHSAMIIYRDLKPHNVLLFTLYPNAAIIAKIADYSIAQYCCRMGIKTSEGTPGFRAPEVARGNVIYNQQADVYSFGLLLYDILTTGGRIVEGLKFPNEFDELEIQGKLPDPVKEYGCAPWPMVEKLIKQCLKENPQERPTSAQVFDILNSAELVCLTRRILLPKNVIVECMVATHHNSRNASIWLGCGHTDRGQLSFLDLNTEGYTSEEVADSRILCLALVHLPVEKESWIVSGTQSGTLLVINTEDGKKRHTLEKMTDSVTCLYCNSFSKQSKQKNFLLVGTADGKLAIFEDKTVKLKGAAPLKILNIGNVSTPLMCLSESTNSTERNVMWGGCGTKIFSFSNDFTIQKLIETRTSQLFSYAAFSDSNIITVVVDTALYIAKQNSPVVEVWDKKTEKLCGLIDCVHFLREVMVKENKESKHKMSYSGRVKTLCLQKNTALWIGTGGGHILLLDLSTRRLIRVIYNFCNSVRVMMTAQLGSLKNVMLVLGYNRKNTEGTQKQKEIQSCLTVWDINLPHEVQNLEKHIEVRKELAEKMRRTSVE
Protocol: Duplicate assay mixtures are set up each in a 10 μL volume containing 17 ng (8 nM) of human LRRK2 protein fragment encompassing amino acids 1326 to 2527, obtained as a recombinant GST fusion protein [according to Jaleel et al., Biochem. J. 405, 307-317 (2007)], 200 μM LRRKtide ([…]peptide), 25 mM Tris, pH 8.2, 5 mM MgCl2, 0.5 mM EGTA, 100 μM ATP, 0.005% Brij-35, 1% DMSO, and compound 3 in a series of concentrations (OnM, 0.1 nM, 0.3 nM, 1 nM, 3 nM, 10 nM, 30 nM, 100 nM, 300 nM, 1000 nM). After incubation for 1 hr at ambient temperature, 5 μL of the Adapta® Assay Detection Mix (Invitrogen) is added, containing 30 mM EDTA to stop the kinase reaction, 30 nM of the Eu-labelled anti-ADP antibody, and the AlexaFluor°-ADP conjugate. […]
The assays conducted in a 384 well microplate are then read out in a fluorescence microplate reader to establish the ratio of emissions at 665 nm (ADP-tracer) and at 615 nm (Eu-antibody) as a measure of ADP concentration by virtue of Fluorescence Resonance Energy Transfer (FRET). The conversion in % of ATP into ADP by the kinase reaction in each well is determined from the ADP/ATP standard curve, and means are formed from each duplicate assay well. […]
Inhibition is determined in the same way as in example 2, except that due to the higher specific activity […] of the mutant aa1326-2527 kinase fragment are used in the assays

Cdk1 = Cdk1 (Homo sapiens, UniProt P06493); experiment: Kinase specificity, Cdk1; type: biochemical; details: 100 μM ATP
Sequence of Cdk1 (P06493 whole entry, species assumed): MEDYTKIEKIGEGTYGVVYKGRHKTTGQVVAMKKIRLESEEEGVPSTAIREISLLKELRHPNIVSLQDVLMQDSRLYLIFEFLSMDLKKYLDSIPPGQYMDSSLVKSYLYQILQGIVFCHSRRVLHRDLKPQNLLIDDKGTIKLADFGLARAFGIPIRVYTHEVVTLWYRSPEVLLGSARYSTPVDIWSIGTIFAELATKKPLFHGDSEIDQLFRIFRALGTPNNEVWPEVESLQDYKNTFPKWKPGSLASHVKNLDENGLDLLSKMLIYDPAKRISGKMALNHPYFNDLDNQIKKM
Sequence of Cdk1 (P14635 whole entry partner, species assumed): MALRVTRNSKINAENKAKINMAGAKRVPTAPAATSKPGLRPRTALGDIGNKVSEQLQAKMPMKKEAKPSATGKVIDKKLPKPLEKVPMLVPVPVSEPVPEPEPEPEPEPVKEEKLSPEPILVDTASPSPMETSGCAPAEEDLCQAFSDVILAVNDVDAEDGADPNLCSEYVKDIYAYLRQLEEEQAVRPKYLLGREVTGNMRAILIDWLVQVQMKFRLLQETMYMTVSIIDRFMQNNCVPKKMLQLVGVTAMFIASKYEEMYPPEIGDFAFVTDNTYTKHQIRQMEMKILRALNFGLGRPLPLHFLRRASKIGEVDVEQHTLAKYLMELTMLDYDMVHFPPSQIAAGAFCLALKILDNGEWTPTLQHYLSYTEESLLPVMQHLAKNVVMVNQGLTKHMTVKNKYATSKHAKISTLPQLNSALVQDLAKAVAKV

CNC(=O)[C@@]1(N)CC2OC1(C)n1c3ccccc3c3c4c(c5c6ccccc6n2c5c31)C(=O)NC4 (some centres unmarked) [Compound 3]
IC50 relative to nominal kinase concentration, G2019S LRRK2 (G2019S mutant LRRK2): substantially below the nominal concentration of the kinase itself | IC50 (Cdk1): 17 nM
